Five compounds from patent US20220389061A1, “IMMUNOMODULATORS” (priority 2019, published 2022) can be followed below.

pIC50: −log10 of the molar value. Starred links: 1 amine or outer side, 2 acyl side, 3 side chain; linkers in the order of their positions; H or OH if unused. Positions of bridges follow the written chain, without caps; N, C: chain ends. Non-standard residues stand in square brackets, D forms with d. Residues, ends and D or L forms follow the SMILES beside them. Groups on a side chain read outwards from the residue. *: point of attachment. Trp(1-CH2CO2Me) = COC(=O)Cn1cc(C[C@H](N)C(=O)O)c2ccccc21; Trp(1-CH2COOH) = N[C@@H](Cc1cn(CC(=O)O)c2ccccc12)C(=O)O; NH(benzothiophen-5-yl) = c1cc2cc(N*)ccc2s1; X75 = S=C(Nc1ccc(C2CC2)c2ccccc12)*; Hyp = O=C(O)[C@@H]1C[C@@H](O)CN1; X60 = Cc1cc2cc(NC(=S)*)ccc2o1; NMeNle = CCCC[C@H](NC)C(=O)O; X59 = S=C(Nc1ccc2nsnc2c1)*; NMeA = CN[C@@H](C)C(=O)O; X71 = c1cc2c(cc1N*)OCCO2; Dab = NCC[C@H](N)C(=O)O; Dap = NC[C@H](N)C(=O)O; CO = O=C([*:1])[*:2]

For this assay, the target named is T1, PD-1/PD-L1 (Homo sapiens, UniProt Q9NZQ7).
T1 construct: TVMV protease site linker (C); made in house; host or cells: HEK293T cells
T1 sequence (Q9NZQ7 18-239): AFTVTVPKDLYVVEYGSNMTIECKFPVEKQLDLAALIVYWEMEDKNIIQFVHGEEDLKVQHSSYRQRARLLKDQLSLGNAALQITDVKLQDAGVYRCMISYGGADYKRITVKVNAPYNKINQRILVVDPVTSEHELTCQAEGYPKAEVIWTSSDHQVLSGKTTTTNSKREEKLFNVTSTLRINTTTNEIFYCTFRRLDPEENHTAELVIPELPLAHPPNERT
In words: PD-1/PD-L1 Homogenous Time-Resolved Fluorescence (HTRF) binding assay. Particulars: PD-L1-His 10 nM pre-incubated with inhibitor, PD-1-Ig 20 nM; read-out: HTRF IC50. In outline:
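Compounds preincubated 15 min with PD-L1-His (10 nM final), then PD-1-Ig (20 nM final) added for 15 min in dPBS with 0.1% BSA, 0.05% Tween-20. Detection by Eu-cryptate anti-Ig (1 nM) and APC anti-His (20 nM) HTRF.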
For orientation: In TR-FRET formats the signal depends on donor and acceptor labels being close together.
`CCCC[C@H]1C(=O)N(C)[C@@H](CCCC)C(=O)N[C@@H](CC(C)C)C(=O)N[C@H](C(=O)NCC(N)=O)CSCC(=O)N[C@@H](Cc2ccc(O)cc2)C(=O)N(C)[C@@H](C)C(=O)N[C@@H](CC(N)=O)C(=O)N2CCC[C@H]2C(=O)N[C@@H](CNC(=S)Nc2ccc3oc(C)cc3c2)C(=O)N[C@@H](CC(C)C)C(=O)N2C[C@H](O)C[C@H]2C(=O)N[C@@H](Cc2c[nH]c3ccccc23)C(=O)N[C@@H](CCN)C(=O)N[C@@H](Cc2cn(CC(=O)O)c3ccccc23)C(=O)N1C` [Example 3055] ({CH2CO}-Y[NMeA]NP[Dap](X60)L[Hyp]W[Dab][Trp(1-CH2COOH)][NMeNle][NMeNle]LCG-NH2; thioether N-14): the pIC50 (in general, the negative decadic logarithm of the IC50, by convention in mol/L) was 8.55.

In the case of `CCCC[C@H]1C(=O)N(C)[C@@H](CCCC)C(=O)N[C@@H](CC(C)C)C(=O)N[C@H](C(=O)NCC(N)=O)CSCC(=O)N[C@@H](Cc2ccc(O)cc2)C(=O)N(C)[C@@H](C)C(=O)N[C@@H](CC(N)=O)C(=O)N2CCC[C@H]2C(=O)N[C@@H](CNC(=S)Nc2ccc3nsnc3c2)C(=O)N[C@@H](CC(C)C)C(=O)N2C[C@H](O)C[C@H]2C(=O)N[C@@H](Cc2c[nH]c3ccccc23)C(=O)N[C@@H](CCNC(=S)Nc2ccc3nsnc3c2)C(=O)N[C@@H](Cc2cn(CC(=O)OC)c3ccccc23)C(=O)N1C` [Example 3056] ({CH2CO}-Y[NMeA]NP[Dap](X59)L[Hyp]W[Dab](X59)[Trp(1-CH2CO2Me)][NMeNle][NMeNle]LCG-NH2; thioether N-14), the negative-log IC50 (pIC50) was 8.25.

For the compound `CCCC[C@H]1C(=O)N(C)[C@@H](CCCC)C(=O)N[C@@H](CC(C)C)C(=O)N[C@H](C(=O)NCC(N)=O)CSCC(=O)N[C@@H](Cc2ccc(O)cc2)C(=O)N(C)[C@@H](C)C(=O)N[C@@H](CC(N)=O)C(=O)N2CCC[C@H]2C(=O)N[C@@H](CNC(=O)Nc2ccc3sccc3c2)C(=O)N[C@@H](CC(C)C)C(=O)N2C[C@H](O)C[C@H]2C(=O)N[C@@H](Cc2c[nH]c3ccccc23)C(=O)N[C@@H](CCNC(=O)Nc2ccc3sccc3c2)C(=O)N[C@@H](Cc2cn(CC(=O)OC)c3ccccc23)C(=O)N1C` [Example 3057] ({CH2CO}-Y[NMeA]NP[Dap]([CO-NH(benzothiophen-5-yl)])L[Hyp]W[Dab]([CO-NH(benzothiophen-5-yl)])[Trp(1-CH2CO2Me)][NMeNle][NMeNle]LCG-NH2; thioether N-14), the pIC50 is 7.47.

In the case of `CCCC[C@H]1C(=O)N(C)[C@@H](CCCC)C(=O)N[C@@H](CC(C)C)C(=O)N[C@H](C(=O)NCC(N)=O)CSCC(=O)N[C@@H](Cc2ccc(O)cc2)C(=O)N(C)[C@@H](C)C(=O)N[C@@H](CC(N)=O)C(=O)N2CCC[C@H]2C(=O)N[C@@H](CNC(=S)Nc2ccc(C3CC3)c3ccccc23)C(=O)N[C@@H](CC(C)C)C(=O)N2C[C@H](O)C[C@H]2C(=O)N[C@@H](Cc2c[nH]c3ccccc23)C(=O)N[C@@H](CCNC(=S)Nc2ccc(C3CC3)c3ccccc23)C(=O)N[C@@H](Cc2cn(CC(=O)O)c3ccccc23)C(=O)N1C` [Example 3058] ({CH2CO}-Y[NMeA]NP[Dap](X75)L[Hyp]W[Dab](X75)[Trp(1-CH2COOH)][NMeNle][NMeNle]LCG-NH2; thioether N-14), the pIC50 was 7.89.

Turning to `CCCC[C@H]1C(=O)N(C)[C@@H](CCCC)C(=O)N[C@@H](CC(C)C)C(=O)N[C@H](C(=O)NCC(N)=O)CSCC(=O)N[C@@H](Cc2ccc(O)cc2)C(=O)N(C)[C@@H](C)C(=O)N[C@@H](CC(N)=O)C(=O)N2CCC[C@H]2C(=O)N[C@@H](CNC(=O)Nc2ccc3c(c2)OCCO3)C(=O)N[C@@H](CC(C)C)C(=O)N2C[C@H](O)C[C@H]2C(=O)N[C@@H](Cc2c[nH]c3ccccc23)C(=O)N[C@@H](CCNC(=O)Nc2ccc3c(c2)OCCO3)C(=O)N[C@@H](Cc2cn(CC(=O)O)c3ccccc23)C(=O)N1C` [Example 3059] ({CH2CO}-Y[NMeA]NP[Dap]([CO-X71])L[Hyp]W[Dab]([CO-X71])[Trp(1-CH2COOH)][NMeNle][NMeNle]LCG-NH2; thioether N-14), the pIC50 is 8.52.
